The source of these data is article PMC4467156, “A new chemical inhibitor of angiogenesis and tumorigenesis that targets the VEGF signaling pathway upstream of Ras” (Oncotarget, 2015).

The IC50 is the concentration needed to halve the response being measured. A low value points to greater potency.

One data set has as its target MEK1 (Homo sapiens, UniProt Q02750). Briefly: In vitro kinase assay MEK1. The class given is biochemical. The following applies: concentrations up to 50 μM. The procedure:
(§1) We first wondered whether COB223 required to be internalized to exert its biological effect. For this, we synthesized a covalent complex between BSA and COB223 and purified it. […] In vitro kinase assays were performed with a panel of purified protein-kinases involved in mitogenic signaling, including VEGFR2, FGFR1, FGFR2, PDGFRß, Met, Raf, MEK1, ERK1, ERK2, PKCα, PKCβI, PKCβII, PKCζ as indicated in Table 2. […] We then analyzed the effect of COB223 on VEGF-induced phosphorylations of VEGFR2, MEK and ERK1/2 (Figure 9). […] (Figure 9A, 9B). […] It was also specific of the p42/p44 MAP kinase pathway as activation of p38 MAP kinase phosphorylation in HUVEC cells by VEGF or serum was unaffected by COB223 (data not shown). The activation of src phosphorylation by VEGF in HUVECs was also unaffected by COB223 (data not shown).

A further data set has as its target PKC ζ (Homo sapiens, UniProt Q05513). Briefly: In vitro kinase assay PKC ζ. The settings on record: concentrations up to 50 μM. The class given is biochemical. On the procedure: as §1
The test system of another data set is HUVEC cells. Briefly: Cell viability WST-1, HUVEC. Type of data set: cell-based, human. The settings on record: confluent HUVEC, 24 h at 37°C. The procedure:
Once they had reached confluency, cells were kept for 24 hours in medium supplemented with 0.5% FCS (LLC/2 and 3T3 cells) or 2.5% FCS (HUVEC and HMVEC-d cells), in the presence of COB223 at different concentrations. WST-1 assay (Roche Diagnostic, Meylan, France) was then performed according to the manufacturer's instructions.
On the technique in general: Tetrazolium dyes change colour on reduction, which living cells bring about.

Another data set relates to 3T3-GFP cells. Briefly: Scratch wound closure assay, 3T3-GFP. The following applies: wound closure after 24 h, 10% FCS, tested 3.125 μM to 100 μM. Type of data set: cell-based. The source says:
Using this assay, we screened the academic library of the University of Grenoble, which is composed of 1360 original molecules. Setting the threshold of significant responses at 75% of the maximal inhibition, we identified 80 inhibitory molecules. At this stage, we reasoned that molecules that would affect the cytoskeleton dynamics or the adhesion properties of any cell type would be positive in this assay but would not represent good candidates for further development. We thus decided to perform a secondary counterscreen of the first 80 selected compounds on GFP-expressing 3T3 fibroblasts (3T3-GFP) using the same scratch assay. We then focused our interest on the 5 molecules that inhibited more strongly HMEC-GFP than 3T3-GFP wound healing. […] We synthesized a series of 30 analogs and tested them at various concentrations both on HMEC-GFP and 3T3-GFP cells. […] Dansyl and naphthalimide aromatic groups, found in COB223 and COB227 respectively, appeared very efficient. The presence of the diaminomethyl group on dansyl is critical for the activity of COB223 as shown by the lower efficiency of COB235 (IC50 is 8 times higher than that of COB223). COB223 and COB227 contain a tert-butyloxycarbonyl function (BOC group) as a second hydrophobic group. Replacement of BOC by an amino group decreased the efficiency and the specificity (compare 05-102-L-B09 vs 05-06-L-D03, or COB227 vs COB228).
Confluent cell monolayers were wounded with a plastic pipet tip, washed gently with phosphate buffer saline (PBS) and treated with complete media containing molecules, as indicated. Cells were placed at 37°C into the incubator and photographed at indicated times. Quantitation of closure of the monolayer was performed using the NIH Image J program (http://rsbweb.nih.gov/ij/). Results are expressed as percentage of wound closure at t = 24 h as compared to the initial wound at t = 0 h.

The next data set concerns LLC/2 cells. Briefly: 3H-thymidine incorporation, LLC/2. Type of data set: cell-based. The following applies: LLC/2 lung carcinoma cells; less efficiently than on endothelial cells. The procedure: Cells were treated with molecules in complete medium. After 22 h, 1 μCi per well H^3 thymidine was added for 2 hours. Cells are then fixed by 10% trichloroacetic acid and harvested with 0.2N NaOH, 1% SDS. Radioactivity was measured in a beta counter.
Background: Uptake of a labelled nucleoside into DNA is a usual measure of proliferation.

A further data set has as its system ERK1/2 phosphorylation. Briefly: ERK1/2 phosphorylation in 3T3 fibroblasts. Type of data set: cell-based. The settings on record: data not shown.
The test system of a further data set is MEK phosphorylation. As to the kind of experiment: Western blot, MEK phosphorylation in HUVEC. The class given is cell-based, human. The following applies: 10 ng/mL VEGF-A 15 min, 25 μM COB223. On the procedure: Figure 9 Effect of COB223 on growth factor-induced VEGF-R2, MEK and ERK phosphorylations (A) Serum-starved HUVEC cells were incubated for 15 min in the presence of either 10 ng/mL VEGF-A or 20 ng/mL FGF-2 and in the absence or the presence of 25 μM COB223. The phosphorylations of VEGFR2 on tyrosine 1175 or tyrosine 1214, of MEK and ERK1/2 were then analyzed by Western blot analysis of the cell lysates as described in Material and Methods. Western blots for total VEGFR2, MEK and ERK1/2 were used as loading controls. The blots shown in Figure 9A were obtained in one representative experiment. (B) The hybridization signals observed in 5 similar but independent experiments were quantitated and the ratios between phospho-VEGFR2(Y1175) or (Y1214) and VEGFR2 signals were normalized to the value observed in the absence of COB223. (C) The hybridization signals observed in 5 similar but independent experiments were quantitated and the ratios between phospho-ERK1/2 and ERK1/2 and between phospho-MEK and MEK were normalized to the values observed in the absence of COB223. Additional experiments performed with 10% fetal calf serum (FCS) as a mitogen were included in this analysis. * : p < 0.05; ** : p < 0.01
Serum-starved HUVEC cells were incubated for 15 min in the presence of either 10 ng/mL VEGF-A or 20 ng/mL FGF-2 and in the absence or the presence of indicated concentration of COB223. […]
(Immunoblotting shows a protein as a band on a membrane.)

Sequence of PKC ζ (Q05513 whole entry): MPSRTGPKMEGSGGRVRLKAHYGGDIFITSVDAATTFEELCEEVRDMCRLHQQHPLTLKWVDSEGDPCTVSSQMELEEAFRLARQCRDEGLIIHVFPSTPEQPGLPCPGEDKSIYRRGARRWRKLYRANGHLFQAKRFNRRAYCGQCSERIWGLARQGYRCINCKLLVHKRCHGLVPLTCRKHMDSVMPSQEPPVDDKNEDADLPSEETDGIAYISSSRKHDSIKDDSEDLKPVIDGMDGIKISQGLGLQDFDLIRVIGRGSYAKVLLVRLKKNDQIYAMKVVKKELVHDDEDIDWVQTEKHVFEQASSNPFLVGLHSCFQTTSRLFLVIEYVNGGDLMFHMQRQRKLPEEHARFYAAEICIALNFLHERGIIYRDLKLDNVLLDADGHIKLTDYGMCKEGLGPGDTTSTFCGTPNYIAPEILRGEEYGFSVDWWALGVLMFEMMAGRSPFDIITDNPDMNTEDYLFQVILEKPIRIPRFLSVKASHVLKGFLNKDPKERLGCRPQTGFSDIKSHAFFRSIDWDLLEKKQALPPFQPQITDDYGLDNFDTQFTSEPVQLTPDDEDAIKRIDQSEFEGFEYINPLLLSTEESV
Sequence of MEK1 (Q02750 whole entry, species assumed): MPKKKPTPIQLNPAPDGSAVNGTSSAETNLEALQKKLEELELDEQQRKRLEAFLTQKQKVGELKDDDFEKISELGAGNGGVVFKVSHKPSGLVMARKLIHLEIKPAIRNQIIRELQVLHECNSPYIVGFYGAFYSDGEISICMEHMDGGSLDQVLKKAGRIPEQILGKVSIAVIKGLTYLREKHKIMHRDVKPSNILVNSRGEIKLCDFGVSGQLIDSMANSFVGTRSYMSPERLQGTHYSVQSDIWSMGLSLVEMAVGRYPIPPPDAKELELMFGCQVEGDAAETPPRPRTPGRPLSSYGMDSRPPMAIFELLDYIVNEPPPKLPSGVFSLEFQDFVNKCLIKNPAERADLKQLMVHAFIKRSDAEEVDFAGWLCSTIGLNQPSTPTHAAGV

Take `CN(C)c1cccc2c(S(=O)(=O)NCCCN3CCN(CCCNC(=O)OC(C)(C)C)CC3)cccc12` [COB223, tert-Butyl 3-(4-(3-(5-(dimethylamino)naphthalene-1-sulfonamido)propyl)piperazin-1-yl) propylcarbamate]: the “kinase inhibition” value on MEK1 and at PKC ζ was “None of them was inhibited” throughout. The same molecule yielded a cytotoxic concentrations with HUVEC cells of over 50 µM. This molecule also registered an IC50 with 3T3-GFP cells of 25 µM. Besides, the “effect on cell proliferation” value in the data set with LLC/2 cells is listed as “inhibited”. In addition, the “FGF2-induced or serum-induced phosphorylation of ERK1/2” value in the data set with ERK1/2 phosphorylation is listed as “did not affect”. Also, the “VEGF-induced phosphorylation of MEK” value in the data set on MEK phosphorylation is “significantly inhibited”.
